target: T1, human AR (Homo sapiens, UniProt P10275); test: IR Binding Assay: whole cell competitive binding of test compounds against 3H-DHT in COS-1 cells transfected with pRShAR; settings: not given
T1 construct: expressed in transfected cells; host or cells: COS-1 cells
T1 sequence (P10275 1-920): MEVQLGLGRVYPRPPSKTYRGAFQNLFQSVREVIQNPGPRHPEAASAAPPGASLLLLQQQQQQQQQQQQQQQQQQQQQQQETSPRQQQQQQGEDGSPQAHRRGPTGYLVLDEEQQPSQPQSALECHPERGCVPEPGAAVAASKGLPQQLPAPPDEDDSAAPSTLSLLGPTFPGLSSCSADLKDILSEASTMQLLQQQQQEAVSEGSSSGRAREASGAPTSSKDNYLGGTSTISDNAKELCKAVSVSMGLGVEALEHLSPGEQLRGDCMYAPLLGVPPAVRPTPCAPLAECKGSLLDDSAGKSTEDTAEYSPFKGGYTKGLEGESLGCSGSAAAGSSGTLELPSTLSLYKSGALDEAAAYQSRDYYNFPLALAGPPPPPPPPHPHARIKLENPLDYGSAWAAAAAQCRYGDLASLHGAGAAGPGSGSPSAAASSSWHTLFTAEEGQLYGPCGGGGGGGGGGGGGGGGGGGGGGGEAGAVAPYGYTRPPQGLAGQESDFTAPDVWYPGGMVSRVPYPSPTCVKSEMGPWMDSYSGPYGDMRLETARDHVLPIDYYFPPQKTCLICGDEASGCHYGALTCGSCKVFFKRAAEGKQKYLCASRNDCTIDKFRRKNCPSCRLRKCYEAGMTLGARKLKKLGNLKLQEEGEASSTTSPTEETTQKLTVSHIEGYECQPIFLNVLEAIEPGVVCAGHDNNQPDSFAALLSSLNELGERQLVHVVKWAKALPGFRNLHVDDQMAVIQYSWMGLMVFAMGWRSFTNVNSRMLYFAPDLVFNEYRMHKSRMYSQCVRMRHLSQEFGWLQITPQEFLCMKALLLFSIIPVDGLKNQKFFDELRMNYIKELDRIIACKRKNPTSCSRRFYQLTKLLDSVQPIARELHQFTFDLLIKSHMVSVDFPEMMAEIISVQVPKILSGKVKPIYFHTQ
How it was run: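 COS-1 cells transfected with pRShAR plus β-Gal reporter, serum-starved 24 h, then exposed to 1 nM ³H-DHT with compounds at 10^−10 to 10^−6 M for 3 h at 37 °C. Bound ³H-DHT counted in lysates, normalized to β-Gal. IC50 from log-logit plot; Ki via Cheng-Prusoff using Kd from Scatchard saturation analysis.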

Going from CC1c2c(ccc3[nH]c(=O)cc(Cl)c23)N(CCC(F)(F)F)C1c1ccccc1 (racemic) [Compound 169, (±)-9-Chloro-1-methyl-2-phenyl-3-(3,3,3-trifluoropropyl)-1,2,3,6-tetrahydro-pyrrolo[3,2-f]quinolin-7-one] to CC1c2c(ccc3[nH]c(=O)cc(Cl)c23)N(CC(F)(F)F)C1c1cccc(Br)c1 (racemic) [Compound 153, (±)-2-(3-Bromophenyl)-9-chloro-1-methyl-3-(2,2,2-trifluoroethyl)-1,2,3,6-tetrahydro-pyrrolo[3,2-f]quinolin-7-one], the Ki rises from < 5 nM to > 10 nM. The first binds more tightly here.

Compared with Cc1c(CCCI)c2c3c(Cl)cc(=O)[nH]c3ccc2n1CC(F)(F)C(F)(F)F [Compound 270, 9-Chloro-1-(3-iodopropyl)-2-methyl-3-(2,2,3,3,3-pentafluoropropyl)-3,6-dihydro-pyrrolo[3,2-f]quinolin-7-one], Cc1c(C)n(CC(F)(F)C(F)(F)F)c2ccc3[nH]c(=O)cc(Cl)c3c12 [Compound 215, 9-Chloro-1,2-dimethyl-3-(2,2,3,3,3-pentafluoropropyl)-3,6-dihydro-pyrrolo[3,2-f]-quinolin-7-one] is lower in Ki: > 10 nM for the first, < 5 nM for the second.

First: Cc1ccc(-c2c(C)c3c4c(Cl)cc(=O)[nH]c4ccc3n2CC(F)(F)C(F)(F)F)o1 [Compound 267, 9-Chloro-1-methyl-2-(5-methylfuran-2-yl)-3-(2,2,3,3,3-pentafluoropropyl)-3,6-dihydro-pyrrolo[3,2-f]quinolin-7-one]
Second: Cc1c(C(F)(F)F)n(CC(F)(F)C(F)(F)F)c2ccc3[nH]c(=O)cc(Cl)c3c12 [Compound 260, 9-Chloro-1-methyl-3-(2,2,3,3,3-pentafluoropropyl)-2-(trifluoromethyl)-3,6-dihydro-pyrrolo[3,2-f]quinolin-7-one]
The Ki of the first is lower: 5 to 10 nM for the first, > 10 nM for the second.

First: CCCC1c2c(ccc3[nH]c(=O)cc(Cl)c23)N(CC(F)(F)F)C1C (racemic) [Compound 165, (±)-9-Chloro-2-methyl-1-propyl-3-(2,2,2-trifluoroethyl)-1,2,3,6-tetrahydro-pyrrolo[3,2-f]-quinolin-7-one]
Second: CCN1c2ccc3[nH]c(=O)cc(Cl)c3c2C(C)C1C (racemic) [Compound 135, (±)-9-Chloro-1,2-dimethyl-3-ethyl-1,2,3,6-tetrahydro-pyrrolo[3,2-f]quinolin-7-one]
The Ki of the first is lower: < 5 nM for the first, 5 to 10 nM for the second. The first binds more tightly here.

Going from Cc1c(C(F)(F)F)n(CC(O)C(F)(F)F)c2ccc3[nH]c(=O)cc(Cl)c3c12 (racemic) [Compound 233, (±)-9-Chloro-1-methyl-3-(3,3,3-trifluoro-2-hydroxypropyl)-2-trifluoromethyl-3,6-dihydropyrrolo[3,2-f]quinolin-7-one] to Cc1c(C)n(C[C@H](O)C(F)(F)F)c2ccc3[nH]c(=O)cc(C(F)(F)F)c3c12 [Compound 245, (−)-1,2-Dimethyl-3-(3,3,3-trifluoro-2-hydroxy-propyl)-9-trifluoromethyl-3,6-dihydro-pyrrolo[3,2-f]-quinolin-7-one], the Ki rises from < 5 nM to > 10 nM.

First: CC1Nc2ccc3[nH]c(=O)cc(Cl)c3c2C1C (racemic) [Compound 140, (±)-9-Chloro-1,2-dimethyl-1,2,3,6-tetrahydro-pyrrolo[3,2-f]quinolin-7-one]
Second: CC1c2c(ccc3[nH]c(=O)cc(Cl)c23)N(Cc2ccccc2)C1C (racemic) [Compound 144, (±)-9-Chloro-1,2-dimethyl-3-phenylmethyl-1,2,3,6-tetrahydro-pyrrolo[3,2-f]quinolin-7-one]
The Ki of the first is higher: > 10 nM for the first, 5 to 10 nM for the second. The second binds more tightly here.

Going from Cc1c(-c2cccnc2)n(C[C@H](O)C(F)(F)F)c2ccc3[nH]c(=O)cc(Cl)c3c12 [Compound 274, (S)-9-Chloro-1-methyl-2-(3-pyridyl)-3-(3,3,3-trifluoro-2-hydroxy-propyl)-3,6-dihydro-pyrrolo[3,2-f]quinolin-7-one] to Cc1c(-c2cccs2)n(C[C@@H](O)C(F)(F)F)c2ccc3[nH]c(=O)cc(Cl)c3c12 [Compound 282, (R)-9-Chloro-1-methyl-2-thiophen-2-yl-3-(3,3,3-trifluoro-2-hydroxy-propyl)-3,6-dihydro-pyrrolo[3,2-f]quinolin-7-one], the Ki falls from > 10 nM to < 5 nM.

Cc1c(C)n(CCO)c2ccc3[nH]c(=O)cc(Cl)c3c12 [Compound 190, 9-Chloro-3-(2-hydroxy-ethyl)-1,2-dimethyl-3,6-dihydro-pyrrolo[3,2-f]quinolin-7-one] and Cc1c(C)n(CCCO)c2ccc3[nH]c(=O)cc(Cl)c3c12 [Compound 287, 9-Chloro-1,2-dimethyl-3-(3-hydroxypropyl)-3,6-dihydro-pyrrolo[3,2-f]quinolin-7-one] cannot be ordered by Ki: > 10 nM for the first, > 10 nM for the second.

Cc1c(C=O)c2c3c(Cl)cc(=O)[nH]c3ccc2n1Cc1ccccc1 [Compound 188, 3-Benzyl-9-chloro-2-methyl-7-oxo-6,7-dihydro-3H-pyrrolo[3,2-f]quinoline-1-carbaldehyde] and CCn1c(C)c(C)c2c3c(Cl)cc(=O)[nH]c3ccc21 [Compound 196, 9-Chloro-1,2-dimethyl-3-ethyl-3,6-dihydro-pyrrolo[3,2-f]quinolin-7-one] cannot be ordered by Ki: < 5 nM for the first, < 5 nM for the second.

Compared with Cc1c(C)n(CCCNCCO)c2ccc3[nH]c(=O)cc(C(F)(F)F)c3c12 [Compound 289, 1,2-Dimethyl-3-[3-(2-hydroxy-ethylamino)-propyl]-9-trifluoromethyl-3,6-dihydro-pyrrolo[3,2-f]quinolin-7-one], Cc1c(C)n(CC(O)CCl)c2ccc3[nH]c(=O)cc(C(F)(F)F)c3c12 (centres unmarked) [Compound 294, 3-(3-chloro-2-hydroxypropyl)-1,2-dimethyl-9-trifluoromethyl-3,6-dihydro-pyrrolo[3,2-f]-quinolin-7-one] is lower in Ki: > 10 nM for the first, < 5 nM for the second. The second binds more tightly here.

CC1c2c(ccc3[nH]c(=O)cc(Cl)c23)N(CC(F)(F)F)C1c1ccccc1F (racemic) [Compound 156, (±)-9-Chloro-2-(2-fluorophenyl)-1-methyl-3-(2,2,2-trifluoroethyl)-1,2,3,6-tetrahydro-pyrrolo[3,2-f]quinolin-7-one] and Cc1c(C(F)(F)C(F)(F)F)n(CC(F)(F)F)c2ccc3[nH]c(=O)cc(Cl)c3c12 [Compound 255, 9-Chloro-1-methyl-2-(pentafluoroethyl)-3-(2,2,2-trifluoroethyl)-3,6-dihydro-pyrrolo[3,2-f]-quinolin-7-one] cannot be ordered by Ki: < 5 nM for the first, < 5 nM for the second.

First: Cc1c(C(F)(F)F)n(CC(F)(F)F)c2ccc3[nH]c(=O)cc(C(F)(F)F)c3c12 [Compound 234, 1-Methyl-3-(2,2,2-trifluoro-ethyl)-2,9-bis-trifluoromethyl-3,6-dihydro-pyrrolo[3,2-f]-quinolin-7-one]
Second: O=c1cc(C(F)(F)F)c2c(ccc3c2c2c(n3CC(O)C(F)(F)F)CCC2)[nH]1 (racemic) [Compound 246, (±)-3-(3,3,3-Trifluoro-2-hydroxy-propyl)-9-trifluoromethyl-1,2-trimethylene-3,6-dihydro-pyrrolo[3,2-f]quinolin-7-one]
The Ki of the first is lower: < 5 nM for the first, 5 to 10 nM for the second. The first binds more tightly here.

same assay, conditions: competition with 1 nM 3H-DHT, transfected COS-1 cells, 3 h at 37° C., Cheng-Prusoff from IC50; read-out: Ki

CC1c2c(ccc3[nH]c(=O)cc(Cl)c23)NC1c1ccccc1 (racemic) [Compound 172, (±)-9-Chloro-1-methyl-2-phenyl-1,2,3,6-tetrahydro-pyrrolo[3,2-f]quinolin-7-one] and Cc1c(-c2cccs2)[nH]c2ccc3[nH]c(=O)cc(Cl)c3c12 [Compound 120, 9-Chloro-1-methyl-2-thien-2-yl-3,6-dihydro-pyrrolo[3,2-f]quinolin-7-one] cannot be ordered by Ki: > 10 nM for the first, > 10 nM for the second.

From patent US8580811B2 (Ligand Pharmaceuticals Incorporated, priority 2005, dated 2013)
